Results reported in US20230293488A1, “COMPOSITIONS AND METHODS OF USE OF ANTIBACTERIAL DRUG COMBINATIONS” (priority 2015, published 2023).
Where two headings read alike, the source gives them in different places.

Experiments:
[1] = system: MRSA N315; assay: MIC assay and FICI synergy determination (checkerboard); assay type: cell-based, Staphylococcus aureus; conditions: Staphylococcus aureus, MRSA; single compounds; read-out: MIC in MRSA N315
Protocol: (§1) Microbiological Studies: MRSA N315 was a gift from Dr. Steven Gill, University of Rochester, Rochester, NY, USA. S. aureus ATCC 29213 was acquired from the American Type Culture Collection. De-identified clinical MRSA isolates were selected at random from the clinical isolate strain bank at Barnes-Jewish Hospital, St. Louis, MO, USA. Minimal inhibitory concentration (MIC) assays for inhibition of growth were performed following the recommendations of the Clinical and Laboratory Standards Institute (CLSI)^43. Briefly, 23 antibacterial compounds (Supplemental Table 1) were selected based on coverage of all major drug classes, including three compounds not classified as antibiotics for human use, but with known antibacterial properties. Compounds were dissolved in dimethyl sulfoxide (DMSO) to a stock concentration of 50 mg/ml. Exceptions: Sulfometuron at 20 mg/ml in DMSO; Tobramycin, D-cycloserine, and colistin at 50 mg/ml in H2O and filtered at 2 μm. The 23 compounds were formulated into all 253 possible unique pairwise combinations at fixed ratios and at 100× concentrations in solvent. To increase the range of concentrations assayed for possible synergistic or antagonistic drug interactions (>2,000-fold), the drug stocks were arrayed into threefold dilution series down eight rows in 96-well Costar master drug plates, using a BioMek FX robotic liquid handler (Beckman Coulter, Inc.). Drugs were then mixed 1:100 into 96-well plates containing 200 μl/well of cation-adjusted Mueller-Hinton broth (CAMHB). All drug susceptibility assay wells were inoculated with ˜1 μl of mid-log phase bacterial culture at 0.5 McFarland standard (˜2×10^8 CFU/ml) and grown at 37° C. for 24 h. Endpoint growth at 37° C. after 24 h was determined by optical density at 600 nm ≥0.1 using a Synergy H1 reader (BioTek, Inc.).
Synergy of antibiotic combinations was determined using the fractional inhibitory concentration index (FICI) method ^57,58. By this method, the MIC of the antibiotic compound in combination is divided by the MIC of the compound alone, yielding the fractional contribution of each drug component in the combination. Quotients for all in a combination are summed and drug interactions scored using the formula: FICI=(MIC Acomb A B C)/MICagent A+(MIC Bcomb A B C)/MICagent B+(MIC Ccomb A B C)/MICagentC Select pairwise combinations against MRSA were then combined with each of the 21 remaining single drugs to make triple combinations, formulated and tested in identical fashion to the double combinations. Synergy of combinations was confirmed via triplicate measurements of drug conditions at the MIC. Based on its high synergy against MRSA N315 in the sparse screening, ME/PI/TZ and its constituents were selected for further characterization. Final susceptibility testing of ME/PI/TZ and its components was performed using twofold dilution from 128 to 2 μg/ml for each component

[2] = system: MRSA N315; assay: In vitro MICs and FICI for MRSA N315 after passage in vivo; assay type: cell-based, Staphylococcus aureus
Excerpt: We tested MRSA N315 cultures from blood drawn from mice treated with meropenem, piperacillin, or vehicle for their in vitro MICs against ME/PI/TZ and its constituent single drugs to determine whether adaptation occurred during passage in vivo. All four tested isolates of MRSA N315 had identical MICs for the triple ME/PI/TZ and all constituent drugs, and thus identical synergy (Table 6B).
as §1
Bacterial isolation from blood. Blood samples were checked for bacterial growth by plating and liquid culture. Whole blood (100 μl, three samples per group) was spread onto Brain-Heart Infusion (BHI) agar plates and incubated at 36° C. overnight. Colonies were counted and three colonies were selected, grown overnight in liquid BHI culture at 36° C., then mixed 1:1 with 30% LB-glycerol and stored at −80° C. The remaining three blood samples of each group (50 μl) was added to 5 ml BHI broth and incubated overnight at 36° C. When growth was noted, cultures were mixed 1:1 with 30% LB-glycerol and stored at −80° C.

[3] = in vivo, iv; cited from earlier work
[4] = biological target: allosteric site of PBP2a (Staphylococcus aureus, UniProt P07944); assay: Binding to the allosteric site of PBP2a
Chain of allosteric site of PBP2a (P07944 whole entry): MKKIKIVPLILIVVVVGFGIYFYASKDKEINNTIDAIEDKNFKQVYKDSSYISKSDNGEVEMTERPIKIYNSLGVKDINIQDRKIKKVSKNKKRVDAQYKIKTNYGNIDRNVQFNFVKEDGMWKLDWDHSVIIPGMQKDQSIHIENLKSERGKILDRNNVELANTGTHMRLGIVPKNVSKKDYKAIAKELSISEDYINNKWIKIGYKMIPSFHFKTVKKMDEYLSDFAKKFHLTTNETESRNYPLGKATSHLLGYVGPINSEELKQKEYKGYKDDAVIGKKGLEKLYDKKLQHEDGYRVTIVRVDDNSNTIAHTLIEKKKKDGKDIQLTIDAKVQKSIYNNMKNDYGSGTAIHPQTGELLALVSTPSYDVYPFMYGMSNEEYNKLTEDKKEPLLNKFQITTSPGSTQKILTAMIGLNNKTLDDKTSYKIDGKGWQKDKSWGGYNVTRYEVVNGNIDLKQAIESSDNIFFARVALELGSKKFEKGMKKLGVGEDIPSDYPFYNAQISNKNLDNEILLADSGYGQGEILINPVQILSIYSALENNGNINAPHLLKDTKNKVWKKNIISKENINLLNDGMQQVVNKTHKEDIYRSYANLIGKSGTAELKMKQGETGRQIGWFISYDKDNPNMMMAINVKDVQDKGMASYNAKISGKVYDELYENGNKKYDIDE

[5] = colonies from mice given Vehicle

| SMILES | MIC [1] [mg/L] | MIC ([2]; Staphylococcus aureus, MRSA) [mg/L] | MIC ([2]; Wild-type N315) [mg/L] | MIC ([2]; colonies from mice given PI) [mg/L] | MIC [2, 5] [mg/L] | mean peak plasma concentration [3] [µg/mL] | Kd ([4]; read-out: dissociation constant (Kd)) [µM] | Kd ([4]; read-out: dissociation constant (Kd), equivalent (converted)) [µM] |
| --- | --- | --- | --- | --- | --- | --- | --- | --- |
| C[C@@H](O)[C@H]1C(=O)N2C(C(=O)O)=C(S[C@@H]3CN[C@H](C(=O)N(C)C)C3)[C@H](C)[C@H]12 [Meropenem] | 16 | 33.3 | 33.3 | 33.3 | 33.3 | 112 | 270 ± 80 | 271 |
| CCN1CCN(C(=O)N[C@@H](C(=O)N[C@@H]2C(=O)N3[C@@H]2SC(C)(C)[C@@H]3C(=O)O)c2ccccc2)C(=O)C1=O [Piperacillin] | 64 | 33.3 | 33.3 | 33.3 | 33.3 | – | – | – |
